According to patent US4774330A, “Cephalosporin intermediates” (Hoffmann-La Roche Inc., priority 1980, dated 1988):
Structures can show the parent of a compound that is named as a salt. Where two headings read alike, the source gives them in different places.

What was measured:
Klebsiella pneumoniae = assay: MIC in vitro, Klebsiella pneumoniae; type: cell-based
Protocol: (§1) The following products were tested:
(§2) The following results relate to the minimum inhibitory concentration (MIC) in vitro (μg/ml): […]

Proteus rettgeri = assay: MIC in vitro, Proteus rettgeri; type: cell-based; conditions: Providencia rettgeri, strain 2
Protocol: as §1, §2

[1] = tested on: Staphylococcus epidermidis; assay: MIC in vitro, Staphylococcus epidermidis; type: cell-based
Protocol: as §1, §2

Enterobacter cloacae = assay: MIC in vitro, Enterobacter cloacae; type: cell-based
Protocol: as §1, §2

Proteus inconstans = assay: MIC in vitro, Proteus inconstans; type: cell-based; conditions: Providencia alcalifaciens
Protocol: as §1, §2

Serratia marcescens = assay: MIC in vitro, Serratia marcescens; type: cell-based
Protocol: as §1, §2

Proteus morganii = assay: MIC in vitro, Proteus morganii; type: cell-based; conditions: Morganella morganii, strain 2
Protocol: as §1, §2

Enterobacter aerogenes = assay: MIC in vitro, Enterobacter aerogenes; type: cell-based; conditions: Klebsiella aerogenes
Protocol: as §1, §2

[2] = toxicity, 24 hours values; type: in vivo; conditions: in vivo, 24 hours value, read-out: Tolerated dosage
Protocol: The compounds in accordance with the invention are non-toxic, as will be evident from the following data for the 24 hours values of products A and B: […]

Streptococcus viridans = assay: MIC in vitro, Streptococcus viridans; type: cell-based
Protocol: as §1, §2

Staphylococcus aureus = assay: MIC in vitro, Staphylococcus aureus; type: cell-based
Protocol: as §1, §2

Streptococcus pneumoniae = assay: MIC in vitro, Streptococcus pneumoniae; type: cell-based
Protocol: as §1, §2

Citrobacter freundii = assay: MIC in vitro, Citrobacter freundii; type: cell-based
Protocol: as §1, §2

Streptococcus faecalis = assay: MIC in vitro, Streptococcus faecalis; type: cell-based; conditions: Enterococcus faecalis
Protocol: as §1, §2

Streptococcus pyogenes = assay: MIC in vitro, Streptococcus pyogenes; type: cell-based
Protocol: as §1, §2

Escherichia coli = assay: MIC in vitro, Escherichia coli; type: cell-based
Protocol: as §1, §2

Proteus mirabilis = assay: MIC in vitro, Proteus mirabilis; type: cell-based
Protocol: as §1, §2

Proteus vulgaris = assay: MIC in vitro, Proteus vulgaris; type: cell-based
Protocol: as §1, §2

SMILES: Cn1nc(OCOC(=O)C(C)(C)C)c(=O)nc1SCC1=C(C(=O)O)N2C(=O)[C@@H](NC(=O)/C(=N\O)c3csc(N)n3)[C@H]2SC1 [Product B, (6R,7R)-7-[2-(2-Amino-4-thiazolyl)-2-(Z-hydroxyimino)acetamindo]-3-[[[2,5-dihydro-2-methyl-5-oxo-6-[(pivaloyloxy)methoxy]-as-triazin-3-yl]thio]methyl]-8-oxo-5-thia-1-azabicyclo[4.2.0]oct-2-ene-2-carboxylic acid sodium salt]
- MIC (Klebsiella pneumoniae; strain 2): 1.6 µg/mL
- MIC (Klebsiella pneumoniae; strain 3): 0.4 µg/mL
- MIC (Klebsiella pneumoniae; strain 4): 0.8 µg/mL
- MIC (Proteus rettgeri): 0.4 µg/mL
- MIC [1]: 0.4 µg/mL
- MIC (Enterobacter cloacae; strain 3): > 25 µg/mL
- MIC (Enterobacter cloacae; strain 4): 6.3 µg/mL
- MIC (Proteus inconstans; strain 2): 0.2 µg/mL
- MIC (Proteus inconstans; strain 3): ≤ 0.025 µg/mL
- MIC (Serratia marcescens; strain 10): 6.3 µg/mL
- MIC (Serratia marcescens; strain 11): 12.5 µg/mL
- MIC (Serratia marcescens; strain 12): 1.6 µg/mL
- MIC (Proteus morganii): 1.6 µg/mL
- MIC (Enterobacter aerogenes; strain 1): 0.2 µg/mL
- MIC (Enterobacter aerogenes; strain 2): 1.6 µg/mL
- MTD at 24 h ([2]; sc, subcutaneous): > 4000 mg/kg
- MTD at 24 h ([2]; oral): > 5000 mg/kg
- MIC (Streptococcus viridans): 0.4 µg/mL
- MIC (Staphylococcus aureus; strain 3): 0.4 µg/mL
- MIC (Staphylococcus aureus; strain 4): 0.8 µg/mL
- MIC (Staphylococcus aureus; strain 5): 0.4 µg/mL
- MIC (Staphylococcus aureus; strain 6): 0.8 µg/mL
- MIC (Streptococcus pneumoniae): 0.1 µg/mL
- MIC (Citrobacter freundii; strain 2): 3.1 µg/mL
- MIC (Citrobacter freundii; strain 3): 0.4 µg/mL
- MIC (Streptococcus faecalis; strain 1): 6.3 µg/mL
- MIC (Streptococcus faecalis; strain 2): > 25 µg/mL
- MIC (Streptococcus pyogenes; strain 1): 0.025 µg/mL
- MIC (Streptococcus pyogenes; strain 2): 0.025 µg/mL
- MIC (Escherichia coli; strain 5): 0.4 µg/mL
- MIC (Escherichia coli; strain 6): 0.2 µg/mL
- MIC (Escherichia coli; strain 7): 0.05 µg/mL
- MIC (Escherichia coli; strain 8): 0.8 µg/mL
- MIC (Proteus mirabilis; strain 2): 0.4 µg/mL
- MIC (Proteus mirabilis; strain 3): 1.6 µg/mL
- MIC (Proteus mirabilis; strain 4): 0.8 µg/mL
- MIC (Proteus vulgaris; strain 4): 12.5 µg/mL
- MIC (Proteus vulgaris; strain 5): 0.8 µg/mL
- MIC (Proteus vulgaris; strain 6): 0.8 µg/mL
